{"source": "patent US20250059581A1", "about": "“METHOD OF BACTERIAL IDENTIFICATION AND TESTING OF BACTERIUM RESISTANT TO ONE OR MORE ANTIBIOTICS” (Nanyang Technological University, priority 2021, published 2025)", "key": {"[1]": {"system": "methicillin-susceptible S. aureus (SA 29213)", "assay": "Metabolic labelling (D-Ala-N3 / DBCO-AF488) fluorescence under penicillin G treatment", "format": "cell-based"}, "[2]": {"system": "methicillin-resistant S. aureus (MRSA BAA39)", "assay": "Metabolic labelling (D-Ala-N3 / DBCO-AF488) fluorescence under penicillin G treatment", "format": "cell-based"}, "[3]": {"system": "S. aureus 29213", "assay": "Flow cytometry of metabolic labelling under penicillin G", "format": "cell-based", "settings": "penicillin G 0-128 μg/mL, 3 h, vs untreated controls"}, "[4]": {"system": "MRSA BAA39", "assay": "Flow cytometry of metabolic labelling under penicillin G", "format": "cell-based, S. aureus", "settings": "penicillin G up to 128 μg/mL, 3 h"}, "[5]": {"system": "SA 29213", "assay": "MILab-microarray assay", "format": "cell-based, S. aureus"}, "[6]": {"system": "MRSA BAA38", "assay": "MILab-microarray assay", "format": "cell-based, S. aureus"}, "[7]": {"system": "SA 29213", "assay": "MILab-ELISA assay", "format": "cell-based, S. aureus", "settings": "penicillin G 16 μg/mL"}, "[8]": {"system": "BAA39", "assay": "MILab-ELISA assay", "format": "cell-based, S. aureus", "settings": "penicillin G 16 μg/mL"}, "[9]": {"system": "SA 29213", "assay": "MILab-LFA assay", "format": "cell-based, S. aureus"}, "[10]": {"system": "BAA39", "assay": "MILab-LFA assay", "format": "cell-based, S. aureus"}, "[11]": {"system": "drug-susceptible (SA 29213) S. aureus", "assay": "MILab-based MiChip (SERS) assay", "format": "cell-based"}, "[12]": {"system": "drug-resistant (BAA40) S. aureus", "assay": "MILab-based MiChip (SERS) assay", "format": "cell-based"}, "[13]": {"settings": "penicillin G 16 μg/mL, 15 min to 4 hours"}, "[14]": {"settings": "penicillin G 16 μg/mL, 1×10^4 CFU/mL"}}, "data": [{"smiles": "CC1(C)S[C@@H]2[C@H](NC(=O)Cc3ccccc3)C(=O)N2[C@H]1C(=O)[O-].[Na+]", "note": "[penicillin G, Penicillin G sodium]", "values": [{"measurement": "fluorescence intensity of metabolic labelling over incubation time", "setting": "[1]; penicillin G 16 μg/mL, 0.5 to 5 h, susceptible SA 29213", "result": "kept constraint"}, {"measurement": "metabolic labelling of single bacteria (confocal imaging)", "setting": "[1]; penicillin G 16 μg/mL, susceptible strains", "result": "negligible labelling"}, {"measurement": "fluorescence intensity of metabolic labelling at varying antibiotic concentration", "setting": "[1]; penicillin G 2-128 μg/mL, susceptible bacteria", "result": "completely inhibit the metabolic labelling"}, {"measurement": "fluorescence intensity of metabolic labelling over incubation time", "setting": "[2]; penicillin G 16 μg/mL, 0.5 to 5 h, resistant MRSA BAA39", "result": "increased quickly with increasing incubation time"}, {"measurement": "metabolic labelling of single bacteria (confocal imaging)", "setting": "[2]; penicillin G 16 μg/mL, resistant strains", "result": "selective labelling"}, {"measurement": "fluorescence intensity of metabolic labelling at varying antibiotic concentration", "setting": "[2]; penicillin G 2-128 μg/mL, resistant bacteria", "result": "much stronger fluorescence intensity"}, {"measurement": "labelling degree of individual bacteria (flow cytometry)", "setting": "[3]", "result": "considerably reduced labelling"}, {"measurement": "labelling degree of individual bacteria (flow cytometry)", "setting": "[4]", "result": "maintained significant labelling"}, {"measurement": "microarray fluorescence signal at increasing drug concentration", "setting": "[5]; Penicillin G 0 to 32 μg/mL, 2 hours, vs untreated controls", "result": "considerably reduced signal"}, {"measurement": "microarray fluorescence signal over drug treatment time", "setting": "[5]; [13]", "result": "negligible signal even at 4 hours"}, {"measurement": "microarray fluorescence signal at increasing drug concentration", "setting": "[6]; Penicillin G 0 to 32 μg/mL, 2 hours", "result": "maintained significant signal"}, {"measurement": "microarray fluorescence signal over drug treatment time", "setting": "[6]; [13]", "result": "increased with increasing penicillin G treatment time"}, {"measurement": "metabolism of bacteria (MILab-ELISA OD 650 nm)", "setting": "[7]", "result": "completely inhibit the metabolism"}, {"measurement": "metabolism of bacteria (MILab-ELISA OD 650 nm)", "setting": "[8]", "result": "high metabolic activity"}, {"measurement": "MILab-LFA signal over drug treatment (incubation) time", "setting": "[9]; penicillin G, up to 4 hours", "result": "no signal even after 4 hours"}, {"measurement": "concentration that completely inhibits the bacteria (MILab-LFA test line)", "setting": "[9]; susceptible bacteria SA 29213", "result": 4, "unit": "µg/mL"}, {"measurement": "MILab-LFA signal over drug treatment (incubation) time", "setting": "[10]; penicillin G, up to 4 hours", "result": "showed signal after 30 min"}, {"measurement": "concentration that completely inhibits the bacteria (MILab-LFA test line)", "setting": "[10]; resistant bacteria BAA39", "result": 64, "unit": "µg/mL"}, {"measurement": "concentration at which weak Raman signals are generated", "setting": "[11]; dose-dependence test, susceptible S. aureus", "result": 8, "unit": "µg/mL"}, {"measurement": "Raman (SERS) signal over incubation time", "setting": "[11]; [14]", "result": "negligible signals all the time"}, {"measurement": "concentration at which weak Raman signals are generated", "setting": "[12]; dose-dependence test, resistant S. aureus", "result": 128, "unit": "µg/mL"}, {"measurement": "Raman (SERS) signal over incubation time", "setting": "[12]; [14]", "result": "distinct Raman signal as short as 30 min"}]}]}
